# Assays:
# Test in all cases: viability relative to DMSO control (fraction); higher = less drug effect (more viable cells)
# Settings in all cases: 48 h
# Bortezomib = compound: CC(C)C[C@H](NC(=O)[C@H](Cc1ccccc1)NC(=O)c1cnccn1)B(O)O [Bortezomib]
# In short: (§1)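 Using 384-well plates with compounds already plated at five concentrations, one well per concentration, 4 × 10^4 primary mononuclear tumour cells were added per well. Cells were Ficoll-isolated from blood or bone marrow or came from processed lymph node, fresh or cryopreserved. They were kept for 48 h at 37 °C and 5% CO2 in RPMI-1640 supplemented with penicillin/streptomycin, L-glutamine and human serum, and viability was read as CellTiter-Glo luminescence relative to the median of 16 inner DMSO wells.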
# Iniparib = compound: NC(=O)c1ccc(I)c([N+](=O)[O-])c1 [Iniparib]
# In short: as §1
# Vemurafenib = compound: CCCS(=O)(=O)Nc1ccc(F)c(C(=O)c2c[nH]c3ncc(-c4ccc(Cl)cc4)cc23)c1F [Vemurafenib]
# In short: as §1
# Birinapant = compound: CC[C@H](NC(=O)[C@H](C)NC)C(=O)N1C[C@@H](O)C[C@H]1Cc1c(-c2[nH]c3cc(F)ccc3c2C[C@@H]2C[C@H](O)CN2C(=O)[C@H](CC)NC(=O)[C@H](C)NC)[nH]c2cc(F)ccc12 [Birinapant]
# In short: as §1
# Imatinib = compound: Cc1ccc(NC(=O)c2ccc(CN3CCN(C)CC3)cc2)cc1Nc1nccc(-c2cccnc2)n1 [Imatinib]
# In short: as §1
# Panobinostat = compound: Cc1[nH]c2ccccc2c1CCNCc1ccc(/C=C/C(=O)NO)cc1 [Panobinostat]
# In short: as §1
# Nelarabine = compound: COc1nc(N)nc2c1ncn2[C@@H]1O[C@H](CO)[C@@H](O)[C@@H]1O [Nelarabine]
# In short: as §1
# AZD7762 = compound: NC(=O)Nc1cc(-c2cccc(F)c2)sc1C(=O)N[C@H]1CCCNC1 [AZD7762]
# In short: as §1
# Ribociclib = compound: CN(C)C(=O)c1cc2cnc(Nc3ccc(N4CCNCC4)cn3)nc2n1C1CCCC1 [Ribociclib]
# In short: as §1
# Pralatrexate = compound: C#CCC(Cc1cnc2nc(N)nc(N)c2n1)c1ccc(C(=O)N[C@@H](CCC(=O)O)C(=O)O)cc1 [Pralatrexate]
# In short: as §1
# [1] = compound: OCc1ccc(-c2ccc(-c3ccc(CO)s3)o2)s1
# In short: as §1
# Idarubicin = compound: CC(=O)[C@]1(O)Cc2c(O)c3c(c(O)c2[C@@H](O[C@H]2C[C@H](N)[C@H](O)[C@H](C)O2)C1)C(=O)c1ccccc1C3=O [Idarubicin]
# In short: as §1
# Nilotinib = compound: Cc1cn(-c2cc(NC(=O)c3ccc(C)c(Nc4nccc(-c5cccnc5)n4)c3)cc(C(F)(F)F)c2)cn1 [Nilotinib]
# In short: as §1
# Pacritinib = compound: C1=N/C2=N/c3ccc(OCCN4CCCC4)c(c3)COC/C=C/COCc3cccc(c3)C(=C1)N2 [Pacritinib]
# In short: as §1
# [2] = compound: CC(C)(C)OC(=O)Nc1ccc(-c2cc(C(=O)NCCCCCCC(=O)NO)no2)cc1
# In short: as §1
test system,measurement,setting,value
primary AML patient cells (S085),viability,Bortezomib; 0.008 µM,0.834
same,viability,Bortezomib; 0.04 µM,0.956
same,viability,Bortezomib; 0.2 µM,0.89
same,viability,Bortezomib; 1 µM,1.13
same,viability,Bortezomib; 5 µM,0.902
same,viability,Iniparib; 0.024 µM,1.09
same,viability,Iniparib; 0.12 µM,1.05
same,viability,Iniparib; 0.6 µM,1.03
same,viability,Iniparib; 3 µM,1.17
same,viability,Iniparib; 15 µM,1.07
same,viability,Vemurafenib; 0.024 µM,1.22
same,viability,Vemurafenib; 0.12 µM,2.12
same,viability,Vemurafenib; 0.6 µM,0.995
same,viability,Vemurafenib; 3 µM,1.26
same,viability,Vemurafenib; 15 µM,1.41
same,viability,Birinapant; 0.0008 µM,0.792
same,viability,Birinapant; 0.004 µM,0.782
same,viability,Birinapant; 0.02 µM,0.589
same,viability,Birinapant; 0.1 µM,0.295
same,viability,Birinapant; 0.5 µM,0.239
same,viability,Imatinib; 0.016 µM,1.28
same,viability,Imatinib; 0.08 µM,0.917
same,viability,Imatinib; 0.4 µM,0.888
same,viability,Imatinib; 2 µM,0.944
same,viability,Imatinib; 10 µM,0.998
same,viability,Panobinostat; 0.00064 µM,1.12
same,viability,Panobinostat; 0.0032 µM,0.37
same,viability,Panobinostat; 0.016 µM,0.0826
same,viability,Panobinostat; 0.08 µM,0.0618
same,viability,Panobinostat; 0.4 µM,0.0707
same,viability,Nelarabine; 0.024 µM,1.16
same,viability,Nelarabine; 0.12 µM,1.08
same,viability,Nelarabine; 0.6 µM,1.1
same,viability,Nelarabine; 3 µM,0.852
same,viability,Nelarabine; 15 µM,0.668
same,viability,AZD7762; 0.024 µM,0.725
same,viability,AZD7762; 0.12 µM,0.835
same,viability,AZD7762; 0.6 µM,0.759
same,viability,AZD7762; 3 µM,0.824
same,viability,AZD7762; 15 µM,0.73
same,viability,Ribociclib; 0.024 µM,0.976
same,viability,Ribociclib; 0.12 µM,1.06
same,viability,Ribociclib; 0.6 µM,0.958
same,viability,Ribociclib; 3 µM,1.01
same,viability,Ribociclib; 15 µM,1.06
same,viability,Pralatrexate; 0.024 µM,1.18
same,viability,Pralatrexate; 0.12 µM,1.04
same,viability,Pralatrexate; 0.6 µM,0.922
same,viability,Pralatrexate; 3 µM,0.991
same,viability,Pralatrexate; 15 µM,0.975
same,viability,[1]; 0.024 µM,0.266
same,viability,[1]; 0.12 µM,0.112
same,viability,[1]; 0.6 µM,0.0946
same,viability,[1]; 3 µM,0.0902
same,viability,[1]; 15 µM,0.0476
same,viability,Idarubicin; 0.024 µM,0.313
same,viability,Idarubicin; 0.12 µM,0.186
same,viability,Idarubicin; 0.6 µM,0.0302
same,viability,Idarubicin; 3 µM,0.0201
same,viability,Idarubicin; 15 µM,0.0181
same,viability,Nilotinib; 0.016 µM,1.07
same,viability,Nilotinib; 0.08 µM,1.13
same,viability,Nilotinib; 0.4 µM,1.13
same,viability,Nilotinib; 2 µM,1.06
same,viability,Nilotinib; 10 µM,1.18
same,viability,Pacritinib; 0.024 µM,1.06
same,viability,Pacritinib; 0.12 µM,0.884
same,viability,Pacritinib; 0.6 µM,0.686
same,viability,Pacritinib; 3 µM,0.178
same,viability,Pacritinib; 15 µM,0.0199
same,viability,[2]; 0.024 µM,1.03
same,viability,[2]; 0.12 µM,0.784
same,viability,[2]; 0.6 µM,0.334
same,viability,[2]; 3 µM,0.0887
same,viability,[2]; 15 µM,0.047
primary AML patient cells (S089),viability,Bortezomib; 0.008 µM,0.864
same,viability,Bortezomib; 0.04 µM,0.583
same,viability,Bortezomib; 0.2 µM,1.1
same,viability,Bortezomib; 1 µM,0.622
same,viability,Bortezomib; 5 µM,1.06
same,viability,Iniparib; 0.024 µM,0.9
same,viability,Iniparib; 0.12 µM,1.04
same,viability,Iniparib; 0.6 µM,0.688
same,viability,Iniparib; 3 µM,0.775
same,viability,Iniparib; 15 µM,0.719
same,viability,Vemurafenib; 0.024 µM,0.942
same,viability,Vemurafenib; 0.12 µM,0.92
same,viability,Vemurafenib; 0.6 µM,0.845
same,viability,Vemurafenib; 3 µM,0.954
same,viability,Vemurafenib; 15 µM,0.699
same,viability,Birinapant; 0.0008 µM,0.907
same,viability,Birinapant; 0.004 µM,0.687
same,viability,Birinapant; 0.02 µM,0.637
same,viability,Birinapant; 0.1 µM,0.224
same,viability,Birinapant; 0.5 µM,0.0766
same,viability,Imatinib; 0.016 µM,1.02
same,viability,Imatinib; 0.08 µM,1.06
same,viability,Imatinib; 0.4 µM,1.18
same,viability,Imatinib; 2 µM,1
same,viability,Imatinib; 10 µM,0.81
same,viability,Panobinostat; 0.00064 µM,0.767
same,viability,Panobinostat; 0.0032 µM,0.403
same,viability,Panobinostat; 0.016 µM,0.124
same,viability,Panobinostat; 0.08 µM,0.0519
same,viability,Panobinostat; 0.4 µM,0.0606
same,viability,Nelarabine; 0.024 µM,0.869
same,viability,Nelarabine; 0.12 µM,1.23
same,viability,Nelarabine; 0.6 µM,1.06
same,viability,Nelarabine; 3 µM,1.04
same,viability,Nelarabine; 15 µM,1.08
same,viability,AZD7762; 0.024 µM,0.533
same,viability,AZD7762; 0.12 µM,0.444
same,viability,AZD7762; 0.6 µM,0.42
same,viability,AZD7762; 3 µM,0.41
same,viability,AZD7762; 15 µM,0.364
same,viability,Ribociclib; 0.024 µM,0.719
same,viability,Ribociclib; 0.12 µM,0.899
same,viability,Ribociclib; 0.6 µM,0.574
same,viability,Ribociclib; 3 µM,0.655
same,viability,Ribociclib; 15 µM,0.306
same,viability,Pralatrexate; 0.024 µM,0.514
same,viability,Pralatrexate; 0.12 µM,0.503
same,viability,Pralatrexate; 0.6 µM,0.517
same,viability,Pralatrexate; 3 µM,0.496
same,viability,Pralatrexate; 15 µM,0.485
same,viability,[1]; 0.024 µM,0.832
same,viability,[1]; 0.12 µM,0.671
same,viability,[1]; 0.6 µM,0.672
same,viability,[1]; 3 µM,0.324
same,viability,[1]; 15 µM,0.128
same,viability,Idarubicin; 0.024 µM,0.473
same,viability,Idarubicin; 0.12 µM,0.128
same,viability,Idarubicin; 0.6 µM,0.0271
same,viability,Idarubicin; 3 µM,0.0237
same,viability,Idarubicin; 15 µM,0.0287
same,viability,Nilotinib; 0.016 µM,1.14
same,viability,Nilotinib; 0.08 µM,1.05
same,viability,Nilotinib; 0.4 µM,0.798
same,viability,Nilotinib; 2 µM,1
same,viability,Nilotinib; 10 µM,1.18
same,viability,Pacritinib; 0.024 µM,0.734
same,viability,Pacritinib; 0.12 µM,0.803
same,viability,Pacritinib; 0.6 µM,0.437
same,viability,Pacritinib; 3 µM,0.0646
same,viability,Pacritinib; 15 µM,0.0405
same,viability,[2]; 0.024 µM,0.477
same,viability,[2]; 0.12 µM,0.406
same,viability,[2]; 0.6 µM,0.306
same,viability,[2]; 3 µM,0.0737
same,viability,[2]; 15 µM,0.0256
primary MCL patient cells (S063),viability,Bortezomib; 0.008 µM,0.91
same,viability,Bortezomib; 0.04 µM,0.969
same,viability,Bortezomib; 0.2 µM,0.884
same,viability,Bortezomib; 1 µM,1.03
same,viability,Bortezomib; 5 µM,0.9
same,viability,Iniparib; 0.024 µM,1.07
same,viability,Iniparib; 0.12 µM,1.11
same,viability,Iniparib; 0.6 µM,0.978
same,viability,Iniparib; 3 µM,1.06
same,viability,Iniparib; 15 µM,0.73
same,viability,Vemurafenib; 0.024 µM,1.02
same,viability,Vemurafenib; 0.12 µM,1.01
same,viability,Vemurafenib; 0.6 µM,1.04
same,viability,Vemurafenib; 3 µM,1.04
same,viability,Vemurafenib; 15 µM,1.04
same,viability,Birinapant; 0.0008 µM,1.02
same,viability,Birinapant; 0.004 µM,1.1
same,viability,Birinapant; 0.02 µM,1.21
same,viability,Birinapant; 0.1 µM,1.23
same,viability,Birinapant; 0.5 µM,1.29
same,viability,Imatinib; 0.08 µM,1.17
same,viability,Imatinib; 0.4 µM,1.18
same,viability,Imatinib; 2 µM,1.07
same,viability,Imatinib; 10 µM,0.952
same,viability,Panobinostat; 0.00064 µM,1.03
same,viability,Panobinostat; 0.0032 µM,0.93
same,viability,Panobinostat; 0.016 µM,0.182
same,viability,Panobinostat; 0.08 µM,0.0167
same,viability,Panobinostat; 0.4 µM,0.0196
same,viability,Nelarabine; 0.024 µM,1.13
same,viability,Nelarabine; 0.12 µM,1.14
same,viability,Nelarabine; 0.6 µM,1.1
same,viability,Nelarabine; 3 µM,1.15
same,viability,Nelarabine; 15 µM,1.1
same,viability,AZD7762; 0.024 µM,0.635
same,viability,AZD7762; 0.12 µM,0.249
same,viability,AZD7762; 0.6 µM,0.16
same,viability,AZD7762; 3 µM,0.0982
same,viability,AZD7762; 15 µM,0.123
same,viability,Ribociclib; 0.024 µM,1.05
same,viability,Ribociclib; 0.12 µM,0.964
same,viability,Ribociclib; 0.6 µM,1.04
same,viability,Ribociclib; 3 µM,0.927
same,viability,Ribociclib; 15 µM,0.679
same,viability,Pralatrexate; 0.024 µM,1
same,viability,Pralatrexate; 0.12 µM,0.963
same,viability,Pralatrexate; 0.6 µM,0.911
same,viability,Pralatrexate; 3 µM,0.901
same,viability,Pralatrexate; 15 µM,0.917
same,viability,[1]; 0.024 µM,1.04
same,viability,[1]; 0.12 µM,1.04
same,viability,[1]; 0.6 µM,1
same,viability,[1]; 3 µM,0.933
same,viability,[1]; 15 µM,0.51
same,viability,Idarubicin; 0.024 µM,1.11
same,viability,Idarubicin; 0.12 µM,0.475
same,viability,Idarubicin; 0.6 µM,0.0231
same,viability,Idarubicin; 3 µM,0.0118
same,viability,Idarubicin; 15 µM,0.0146
same,viability,Nilotinib; 0.016 µM,1.15
same,viability,Nilotinib; 0.08 µM,1.09
same,viability,Nilotinib; 0.4 µM,1.17
same,viability,Nilotinib; 2 µM,1.15
same,viability,Nilotinib; 10 µM,1.11
same,viability,Pacritinib; 0.024 µM,1.06
same,viability,Pacritinib; 0.12 µM,1.07
same,viability,Pacritinib; 0.6 µM,0.776
same,viability,Pacritinib; 3 µM,0.486
same,viability,Pacritinib; 15 µM,0.0171
same,viability,[2]; 0.024 µM,1.05
same,viability,[2]; 0.12 µM,1
same,viability,[2]; 0.6 µM,0.859
same,viability,[2]; 3 µM,0.24
same,viability,[2]; 15 µM,0.0207

# From the supplement of paper PMC10733146
